Results on 104 compounds are retold here after ChEMBL document CHEMBL3507680, “University of Dundee, Gates Library screen for HepG2 cell viability”.

A short description of the data set: Human HepG2 cell viability assay in 384 well format. It counts as toxicity, cell-based. The note with it: HepG2 cells, read-out: Inhibition. Set-up: dose 125 nL, time 70.5 hour; concentration not given beside the values.

Consider `CN(CCN1CCCC1=O)S(=O)(=O)CC1CCCC1`, for which the cytotoxicity at 70.5 h was -4.62%.

Take `CCn1cc(CN(C)S(=O)(=O)N2CCCC2c2ccco2)cn1` (centres undefined): the cytotoxicity at 70.5 h is -1.42%. With `CC(C)N1CCC(Nc2ccn(CCC#N)n2)C1=O` (centres undefined), the cytotoxicity at 70.5 h was -2.6%. As to `Cc1[nH]ccc1C(=O)N(C)C1CC(=O)N(Cc2ccccc2)C1=O` (centres undefined), the cytotoxicity at 70.5 h is -2.82%. In the case of `O=C(CNc1cc(F)ccc1OC(F)F)NCC(F)(F)F`, the cytotoxicity at 70.5 h was 2.53%. Regarding `CN(C(=O)CN1CCCC1c1cnn(C)c1)C(C)(C)C#N` (centres undefined), the cytotoxicity at 70.5 h came out at 1.19%. Consider `Cc1ccc(N2CCCC(N(C)c3ncnc4c3CCC4)C2)nn1` (centres undefined), for which the cytotoxicity at 70.5 h stood at 2.74%. With `CCOc1cc(C(=O)N(C)C)ccc1NC(=O)C(C)c1ccsc1` (centres undefined) the figure was 26%; with `O=c1oc(-c2ccc(F)cc2)nn1CCc1ccccn1`, 2.48%; with `CCN(CC)Cc1ccccc1NC(=O)N(C)Cc1ccccc1O`, -6.5%. For the compound `Cn1ccnc1COc1ccc(CSc2nncn2C2CC2)cc1`, the cytotoxicity at 70.5 h was -8.64%. In the case of `CN(C)C(=O)c1ccccc1NC(=O)N(C)Cc1ccccc1O`, the cytotoxicity at 70.5 h is 4.11%. Regarding `NC(=O)Cn1ccc(NC(=O)C2(c3cccc(Cl)c3)CC2)n1`, the cytotoxicity at 70.5 h is -7.03%. `Cc1cc(C(=O)N2CCCC(N3CCNC3=O)C2)nn1C(C)(C)C` (centres undefined): the cytotoxicity at 70.5 h is -0.73%.

For `NC(=O)CCN1C(=O)CC(Cc2ccc(F)cc2)C1=O` (centres undefined), the cytotoxicity at 70.5 h was -11.2%.

`N#CC(NC(=O)CS(=O)(=O)C1CCCC1)c1ccc(F)cc1F` (centres undefined): the cytotoxicity at 70.5 h was -10.4%. `O=C(CNc1ccc(F)cc1OCC(F)(F)F)NCC(F)(F)F`: the cytotoxicity at 70.5 h came to 13.1%. Consider `CC(CNC(=O)c1c[nH]nn1)Oc1cccc(Br)c1` (centres undefined), for which the cytotoxicity at 70.5 h is -11.4%. `CC(CNC(=O)c1ccon1)Oc1cccc(Br)c1` (centres undefined): the cytotoxicity at 70.5 h amounted to 4.03%. Regarding `C=C(C)CN1C(=O)CC(Cc2ccc(F)cc2)C1=O` (centres undefined), the cytotoxicity at 70.5 h is -3.87%. For `CCOc1ccc(C(=O)N(C)C)cc1NC(=O)c1ccsc1` the value was -10.6%; for `CCCS(=O)(=O)N(C)C(=O)CCc1ccccc1`, -8.46%; for `NC(=O)Cn1ccc(NC(=O)C2(c3cccc(F)c3)CCC2)n1`, 19.5%. Take `Cc1cc(CNC(=O)c2cccs2)ccc1S(C)(=O)=O`: the cytotoxicity at 70.5 h is -3.96%. Turning to `N#CC(NC(=O)CCC(=O)NC1CCCC1)c1ccc(F)cc1F` (centres undefined), the cytotoxicity at 70.5 h is -11.2%. `CC1c2cccn2CCN1S(=O)(=O)N1CCCCCC1` (centres undefined): the cytotoxicity at 70.5 h is -14.2%. As for `CCCN(CC1CC1)C(=O)CN1CCCC1c1cnn(C)c1` (centres undefined), the cytotoxicity at 70.5 h is -10.4%. On to `CCOc1ccc(N(C)S(=O)(=O)c2c[nH]c(C(C)C)n2)cc1`, for which the cytotoxicity at 70.5 h was -4.89%. As for `CC(Cn1cccn1)NC(=O)N1CCC(NS(C)(=O)=O)CC1` (centres undefined), the cytotoxicity at 70.5 h is -17.2%.

Take `Cc1nc2n(n1)CC(NCC(=O)N(C)Cc1cccs1)CC2` (centres undefined): the cytotoxicity at 70.5 h stood at 2.31%. For `CN(c1cccc(C#N)c1)S(=O)(=O)c1cc(C(=O)O)ccc1Cl`, the cytotoxicity at 70.5 h was -12.6%. As to `Cc1cc(C(=O)Nc2ccc(OCC3CCOCC3)cc2)[nH]n1`, the cytotoxicity at 70.5 h is 1.95%. For the compound `Cc1cc(NC(=O)Cn2nc(C)c(C#N)c2N)ccc1Br`, the cytotoxicity at 70.5 h is -7.3%.

Consider `COc1ccc(C)cc1NC(=O)Cn1nc(C)c(C#N)c1N`, for which the cytotoxicity at 70.5 h is -5.55%. On to `Cc1nn(CC(=O)Nc2ccc(F)cc2)c(N)c1C#N`, for which the cytotoxicity at 70.5 h is -0.498%.

In the case of `O=C(Cn1cc(C2CC2)nn1)NC(c1ccc(Cl)cc1)C1CC1` (centres undefined), the cytotoxicity at 70.5 h was -8.06%. As to `O=C(Cn1cc(C2CC2)nn1)NC(c1cc(F)ccc1F)C1CC1` (centres undefined), the cytotoxicity at 70.5 h is -5.37%. Turning to `CNC(=O)C(C)(C)CNC(=O)Nc1ccc(C)cn1`, the cytotoxicity at 70.5 h is -3.94%.

For `CNC(=O)C(C)(C)CNC(=O)Nc1ccncc1C`, the cytotoxicity at 70.5 h is -9.08%. Consider `NC(=O)c1cccc(CCNC(=O)N2CCCC2)c1`, for which the cytotoxicity at 70.5 h is -8%.

On to `COc1cc(NCc2ncc[nH]2)ccc1Br`, for which the cytotoxicity at 70.5 h was -1.95%. `COCCn1cc(NC(=O)NCC(C)N2CCOCC2)cn1` (centres undefined): the cytotoxicity at 70.5 h is -13.2%. In the case of `CC(CC#N)N(C)Cc1ccc(F)cc1F` (centres undefined), the cytotoxicity at 70.5 h is -6.44%.

As for `C=C(C)CN(CC)Cc1nc(CC)no1`, the cytotoxicity at 70.5 h is -8.43%.

Turning to `CC(CC#N)N(C)Cc1ccc(F)cc1C#N` (centres undefined), the cytotoxicity at 70.5 h was 11.9%. As for `Cc1cnn(CCNC(C)c2nnc(-c3ccccc3)o2)c1` (centres undefined), the cytotoxicity at 70.5 h was -7.05%.

Regarding `C=C(C)CN1CCOC(Cn2cncn2)C1` (centres undefined), the cytotoxicity at 70.5 h is 32%. With `COc1ccc(NC(=O)C2CCCO2)cc1OCc1cccnc1` (centres undefined) the figure was 49.9%.

Take `Cc1ccc2cc(C(=O)N3CCN(S(C)(=O)=O)CC3)[nH]c2c1`: the cytotoxicity at 70.5 h is 12.7%. Turning to `O=C(COc1ccccc1)N(Cc1ccncc1)C1CC1`, the cytotoxicity at 70.5 h is -8.79%. With `COc1ccccc1C(C)N1CCN(S(C)(=O)=O)CC1` (centres undefined) the figure was 11.4%; with `CC(=O)NC(C)(C)c1noc(C2(C#N)CCCCC2)n1`, -3.45%. Regarding `O=C(NCc1nncn1C1CC1)c1ccc(F)c(COCC2CC2)c1`, the cytotoxicity at 70.5 h was 7.64%.

As for `COCCC1(CNC(=O)NCC2CCCS2)CCCC1` (centres undefined), the cytotoxicity at 70.5 h was -3.7%.

Regarding `CC(NC(=O)N1CCN(c2cccs2)CC1)c1ccc(C#N)cc1` (centres undefined), the cytotoxicity at 70.5 h is -2.79%. As for `CC(NC(=O)N1CCN(c2cccs2)CC1)c1ccncc1` (centres undefined), the cytotoxicity at 70.5 h is -3.43%. As to `CC(=O)N1CCCN(C(=O)NCCCc2cn[nH]c2C)CC1`, the cytotoxicity at 70.5 h is -2.68%. Take `COCCOCC(=O)N(C)Cc1ccc(OCc2cccs2)cc1`: the cytotoxicity at 70.5 h is -6.68%.

In the case of `CCOC(=O)C1CCN(CCCc2nnnn2-c2ccccc2)CC1`, the cytotoxicity at 70.5 h is -3.5%. `CC(=O)N(C)Cc1ccc(OCc2cccs2)cc1`: the cytotoxicity at 70.5 h is -2.58%. Consider `CCOCCN1CCN(CCCc2nnnn2-c2ccccc2)CC1`, for which the cytotoxicity at 70.5 h was -5.57%. `CC(C)c1nsc(N2CCc3sccc3C2)n1`: the cytotoxicity at 70.5 h was -11.5%.

Take `COCCC1(CNC(=O)NCC2CCCN(C)C2)CCCC1` (centres undefined): the cytotoxicity at 70.5 h is -1.2%.

With `COc1ccc(CNC(C)c2cnc3cc(C)nn3c2C)cc1` (centres undefined), the cytotoxicity at 70.5 h is -2.4%. Take `Cc1cc2ncc(C(C)NCc3cccnc3)c(C)n2n1` (centres undefined): the cytotoxicity at 70.5 h is -3.89%. For the compound `CC(C)C1CN(C(=O)Nc2cnn(CC(F)F)c2)CCO1` (centres undefined), the cytotoxicity at 70.5 h is -4.6%. Consider `Cc1nc(C2CCCN2CCOCC2CC2)no1` (centres undefined), for which the cytotoxicity at 70.5 h was -11.1%. `Cc1cnn(CCCNC(=O)NCCS(=O)(=O)Nc2ccccc2)c1`: the cytotoxicity at 70.5 h was -25.5%. Consider `NC(=O)C1CCN(CCCNC(=O)Nc2nncs2)CC1`, for which the cytotoxicity at 70.5 h is -14.5%. As to `Cc1ccccc1C(CC(=O)N1CCc2sccc2C1)NC(N)=O` (centres undefined), the cytotoxicity at 70.5 h is -21.9%. Turning to `Cc1csc(NC(=O)NCCCN2CCC(C(N)=O)CC2)n1`, the cytotoxicity at 70.5 h is -16.3%. Turning to `CN1CC(C(=O)NCCc2ccc(Br)cc2F)CC1=O` (centres undefined), the cytotoxicity at 70.5 h was -19.2%. As to `CCC(Nc1ccc(CCN2CCCCC2)cc1)C(N)=O` (centres undefined), the cytotoxicity at 70.5 h was -8.14%. For the compound `CN1CC(C(=O)NCc2ccc(Br)cc2F)CC1=O` (centres undefined), the cytotoxicity at 70.5 h is -14.4%. `Cc1cnn(CCCNC(=O)NC(C)C(=O)Nc2ccccc2)c1` (centres undefined): the cytotoxicity at 70.5 h was 6.05%. `CSc1ccc(OCCN2CCNC(=O)C2C)cc1` (centres undefined): the cytotoxicity at 70.5 h is -15.5%.

With `O=C(Cc1ccccc1O)NC1CCCN(c2ccccc2F)C1=O` (centres undefined), the cytotoxicity at 70.5 h is -18.3%. `Cc1c(C(=O)NCC(C)(C)S(C)(=O)=O)cccc1-c1ccccn1`: the cytotoxicity at 70.5 h is -16.9%. For `Cc1ccccc1CNC(=O)CNc1ccc(OC2CCOC2)cc1` (centres undefined), the cytotoxicity at 70.5 h is -13.6%.

As to `COc1ccccc1CN(Cc1nc(C)no1)C1CC1`, the cytotoxicity at 70.5 h is -20.3%. `Cc1cc(CC(=O)NC2CCCN(c3ccccc3Cl)C2=O)n[nH]1` (centres undefined): the cytotoxicity at 70.5 h is -19%. For `COCc1nn(Cc2ccc(Br)s2)c(=O)o1` the value was -9.84%; for `COc1ccccc1CN(Cc1nc(CC(C)C)no1)C1CC1`, -14.2%. Take `CCCc1nn(Cc2ccc(Br)s2)c(=O)o1`: the cytotoxicity at 70.5 h is -23.4%.

On to `NC1CCCN(Cc2cccc(C(F)(F)F)c2)C1=O` (centres undefined), for which the cytotoxicity at 70.5 h was -7.1%. Regarding `CC(C)c1nc(C2CCCN2CCS(C)(=O)=O)no1` (centres undefined), the cytotoxicity at 70.5 h is -12.9%. For `Cc1cc(CC(=O)NC2CCCN(Cc3ccccc3)C2=O)n[nH]1` (centres undefined), the cytotoxicity at 70.5 h was -21.2%. `Cc1cc(F)ccc1N1CCCC(NC(=O)CCCn2ccnc2)C1` (centres undefined): the cytotoxicity at 70.5 h was -26%. Consider `CN(CCc1ccc2c(c1)CCO2)CC1CCS(=O)(=O)C1` (centres undefined), for which the cytotoxicity at 70.5 h is -9.73%. With `CCc1noc(CN(C)C(=O)C(C)(C)Oc2cccc(Cl)c2)n1` the figure was 7.49%; with `Cc1cc(C)c(CNC(=O)NCc2nnc3n2CCC3)c(=O)[nH]1`, 14.7%. As to `Cc1cccc(-c2nc(C)nn2CN2CCN(S(C)(=O)=O)CC2)c1`, the cytotoxicity at 70.5 h was -3.93%. For `COC(=O)CNC(=O)C1(NC(=O)c2ccc3[nH]ncc3c2)CCCC1`, the cytotoxicity at 70.5 h is 0.707%. For the compound `CC(C)S(=O)(=O)Cc1cccc(NC(=O)c2ccc[nH]2)c1`, the cytotoxicity at 70.5 h was -11%. `CCc1noc(CN(C)C(=O)COc2cccc(Cl)c2C)n1`: the cytotoxicity at 70.5 h was -6.73%. As to `CC(C)C(CCO)NC(=O)Nc1cc(F)ccc1-n1cccn1` (centres undefined), the cytotoxicity at 70.5 h is -3.1%.

In the case of `CC(C)c1nc(C2CCCN2c2cnc3ccccc3n2)no1` (centres undefined), the cytotoxicity at 70.5 h was -6.53%. With `COCC(=O)N1CCC(Nc2ccnc3ccc(Cl)cc23)CC1`, the cytotoxicity at 70.5 h came to 4.85%. With `Cc1ccc(S(C)(=O)=O)cc1C(=O)NS(=O)(=O)c1cccs1` the figure was -5.12%; with `Cc1nc2c(s1)C(N(C)C(=O)NCCCC(C)(C)CO)CCC2` (centres undefined), -6.11%.

Regarding `O=C(CCOCC(F)(F)F)NS(=O)(=O)c1cccnc1`, the cytotoxicity at 70.5 h is -3.03%.

On to `CCC(C)NS(=O)(=O)Cc1cccc(NC(=O)c2ccc[nH]2)c1` (centres undefined), for which the cytotoxicity at 70.5 h is -2.71%.

For `CCC(C)NS(=O)(=O)Cc1cccc(NC(=O)C2=CCCC2)c1` (centres undefined), the cytotoxicity at 70.5 h was -4.4%. Regarding `COc1cc(F)cc(NC(=O)NCc2cccc(N(C)C)n2)c1`, the cytotoxicity at 70.5 h was 16.5%.
